For series [1] the following is noted: cited from earlier work.
A short description of series [2]: Thermodynamic stability test (endothermic peak in DSC scan). It is filed as physicochemical. From the text:
The mixture of Comparative Example 1, solid dispersion of Example 1 and crystalline taclolimus were each subjected to a thermodynamic stability test by examining the change in the endothermic peak in its DSC scan. The temperatures representing respective endothermic peaks are represented in Table 17, and the overall DSC results are shown in FIG. 1.
For orientation: DSC measures the heat that a sample takes up or gives off during a temperature scan.

Take `C=CC[C@@H]1/C=C(\C)C[C@H](C)C[C@H](OC)[C@H]2O[C@@](O)(C(=O)C(=O)N3CCCCC3C(=O)O[C@H](/C(C)=C/C3CC[C@@H](O)[C@H](OC)C3)[C@H](C)[C@@H](O)CC1=O)[C@H](C)C[C@@H]2OC` (stereo partly drawn) [Taclolimus, (—)-(1R,9S,13R,14S,17R,18E,21S,23S,24R,25S,27R)-17-allyl-1,14-dihydroxy-12-[(E)-2-[(1R,3R,4R)-4-hydroxy-3-methoxycyclohexyl]-1-methylvinyl]-23,25-dimethoxy-13,19,21,27-tetramethyl-11,28-dioxa-4-azatricyclo[22.3.1.0^4.9]octacos-18-ene-2,3,10,16-tetrone hydrate]: in series [1] (organic solvents such as anhydrous ethanol), the “Solubility in organic solvents” value is “very soluble”. Besides, the Solubility in water entry in series [1] (water) is recorded as “insoluble in water”. The same compound displayed an Endothermic peak temperature in series [2] of 127.0 °C.
